Source: US20240083853A1, “HSD17B13 INHIBITORS AND USES THEREOF” (FL2022-001, Inc., priority 2020, published 2024)
pIC50: −log10 of the molar value. Counter-ions that a name gives are not always drawn. Like-named read-outs stand apart in the source and are kept apart here.

Target: T1, Recombinant human HSD17B13 enzyme (Homo sapiens, UniProt Q7Z5P4)
T1 sequence (Q7Z5P4 20-300): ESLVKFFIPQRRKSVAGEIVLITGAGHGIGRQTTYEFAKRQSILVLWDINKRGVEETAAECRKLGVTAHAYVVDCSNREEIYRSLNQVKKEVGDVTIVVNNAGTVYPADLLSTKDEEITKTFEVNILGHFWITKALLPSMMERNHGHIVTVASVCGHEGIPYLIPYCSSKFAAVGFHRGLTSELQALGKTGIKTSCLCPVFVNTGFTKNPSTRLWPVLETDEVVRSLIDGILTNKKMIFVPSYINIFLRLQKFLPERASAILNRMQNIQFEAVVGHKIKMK
Assay: HSD17b13 NAD(P)H-Glo biochemical assay
Conditions: for pIC50: 50 uM estradiol, 1 mM NAD+, NAD(P)H-Glo luminescence, read-out: HSD17β13 IC50; for inhibition at 10 µM: 3 h, read-out: HSD17β13 % at 10 uM
Protocol: Example B-1: HSD17b13 NAD(P)H-Glo Biochemical Assay
Recombinant human HSD17B13 enzyme. Substrate: estradiol (Sigma β-Estradiol E8875), 100 mM in DMSO. Cofactor: NAD+ Grade I free acid (Sigma 10127965001), 20 mM in H2O. Assay buffer final concentration: 20 mM Tris pH7.4 with 0.002% Tween-20 and 0.02% BSA. Assay performed in 384 well solid bottom plate (Corning 3570). Enzymatic activity detected by NAD(P)H-Glo™ Detection System (Promega G9062).
Inhibitor compounds were serially diluted in DMSO and then further diluted in assay buffer to a 10× concentration consisting of 1% DMSO.
HSD17b13 enzyme was diluted in 1× assay buffer to the desired enzyme concentration based on the specific activity of the enzyme lot. 20 uL of diluted enzyme was added to each well along with 2.5 uL of 10× inhibitor solution. Assay plate was incubated at RT for 20 minutes, and then 2.5 uL of a 10× substrate/cofactor mix was added to each well for a final concentration of 50 uM estradiol and 1 mM NAD+. Assay plate was incubated at 37° C. for 3 hours. NAD(P)H-Glo™ Detection System reagents were prepared according to manufacturer's specifications, and 25 uL was added to each well. After incubating for 1 hour at RT, luminescence was measured.

Compound | pIC50 | further results
CC1(C)CCN(c2ccc(-n3nnc4cc(F)c(O)c(F)c43)cc2)CC1 [Compound 21, 1-(4-(4,4-Dimethylpiperidin-1-yl)phenyl)-5,7-difluoro-1H-benzo[d][1,2,3]triazol-6-ol] | > 7.00 | 
Oc1c(F)cc2cnn(-c3ccc(N4CC5CC(C4)O5)cc3)c2c1F [Compound 23.16, 1-(4-(6-Oxa-3-azabicyclo[3.1.1]heptan-3-yl)phenyl)-5,7-difluoro-1H-indazol-6-ol] | 6.00 to 7.00 | 
CS(=O)(=O)N1CCN(c2cnc(-n3ncc4cc(F)c(O)c(F)c43)cn2)CC1 [Compound 26.7, 5,7-Difluoro-1-(5-(4-(methylsulfonyl)piperazin-1-yl)pyrazin-2-yl)-1H-indazol-6-ol] | 6.00 to 7.00 | 
CS(=O)(=O)NC1CCN(c2ccc(-n3ncc4cc(F)c(O)c(F)c43)cc2)CC1 [Compound 23.17, N-(1-(4-(5,7-Difluoro-6-hydroxy-1H-indazol-1-yl)phenyl)piperidin-4-yl)methanesulfonamide] | 6.00 to 7.00 | 
CC1(C)CCN(c2cnc(-n3ncc4cc(F)c(O)c(F)c43)cn2)CC1 [Compound 26.6, 1-(5-(4,4-Dimethylpiperidin-1-yl)pyrazin-2-yl)-5,7-difluoro-1H-indazol-6-ol] | > 7.00 | 
CS(=O)(=O)N1CCN(c2ccc(-n3ncc4cc(F)c(O)c(F)c43)cc2)CC1 [Compound 19, 5,7-Difluoro-1-(4-(4-(methylsulfonyl)piperazin-1-yl)phenyl)-1H-indazol-6-ol] | 6.00 to 7.00 | 
CS(=O)(=O)N1CCN(c2ccc(-n3ncc4cc(F)c(O)c(F)c43)c(Cl)c2)CC1 [Compound 20.1, 1-(2-Chloro-4-(4-(methylsulfonyl)piperazin-1-yl)phenyl)-5,7-difluoro-1H-indazol-6-ol] | > 7.00 | 
CC1(C)CN(S(C)(=O)=O)CCN1c1ccc(-n2ncc3cc(F)c(O)c(F)c32)cc1 [Compound 23.6, 1-(4-(2,2-Dimethyl-4-(methylsulfonyl)piperazin-1-yl)phenyl)-5,7-difluoro-1H-indazol-6-ol] | 6.00 to 7.00 | 
CS(=O)(=O)N1CCN(c2ccc(-n3ncc4cc(F)c(O)c(F)c43)cc2Cl)CC1 [Compound 19.1, 1-(3-Chloro-4-(4-(methylsulfonyl)piperazin-1-yl)phenyl)-5,7-difluoro-1H-indazol-6-ol] | > 7.00 | 
Oc1c(F)cc2cnn(-c3ccc(N4CCC5(CC4)CC5)cc3)c2c1F [Compound 23.23, 1-(4-(6-Azaspiro[2.5]octan-6-yl)phenyl)-5,7-difluoro-1H-indazol-6-ol] | > 7.00 | 
Oc1cc2c(cnn2-c2ccc(-c3ccc(Cl)cc3)cc2)cc1F [Compound 13.8, 1-(4′-Chloro-[1,1′-biphenyl]-4-yl)-5-fluoro-1H-indazol-6-ol] | 6.00 to 7.00 | 
Oc1ccc(-c2ccc(-n3cnc4cc(F)c(O)cc43)cc2)cc1 [Compound 9, 5-Fluoro-1-(4′-hydroxy-[1,1′-biphenyl]-4-yl)-1H-benzo[d]imidazol-6-ol] | > 7.00 | 
CC1(C)CCN(c2ncc(-n3ncc4cc(F)c(O)c(F)c43)cn2)CC1 [Compound 6.1, 1-(2-(4,4-Dimethylpiperidin-1-yl)pyrimidin-5-yl)-5,7-difluoro-1H-indazol-6-ol] | > 7.00 | 
CS(=O)(=O)C1CCN(c2ccc(-n3ncc4cc(F)c(O)c(F)c43)cc2)CC1 [Compound 22.3, 5,7-Difluoro-1-(4-(4-(methylsulfonyl)piperidin-1-yl)phenyl)-1H-indazol-6-ol] | 6.00 to 7.00 | 
CS(=O)(=O)N1CCC(Oc2ccc(-n3ncc4cc(F)c(O)c(F)c43)cc2)CC1 [Compound 31, 5,7-Difluoro-1-(4-((1-(methylsulfonyl)piperidin-4-yl)oxy)phenyl)-1H-indazol-6-ol] | 6.00 to 7.00 | 
CCC1(CC)CCN(c2ccc(-n3ncc4cc(F)c(O)c(F)c43)cc2)CC1 [Compound 24.7, 1-(4-(4,4-Diethylpiperidin-1-yl)phenyl)-5,7-difluoro-1H-indazol-6-ol] | > 7.00 | 
CC1(C)CCN(c2ccc(-n3nnc4cc(F)c(O)c(F)c43)nn2)CC1 [Compound 26.23, 1-(6-(4,4-Dimethylpiperidin-1-yl)pyridazin-3-yl)-5,7-difluoro-1H-benzo[d][1,2,3]triazol-6-ol] | 6.00 to 7.00 | 
C[C@@H]1CN(c2ccc(-n3ncc4cc(F)c(O)c(F)c43)cc2)C[C@H](C)O1 [Compound 20.7, 1-(4-(cis-2,6-Dimethylmorpholino)phenyl)-5,7-difluoro-1H-indazol-6-ol] | > 7.00 | 

Compound | pIC50 | further results
CC1(C)CCN(c2ccc(-n3ncc4cc(F)c(O)c(F)c43)cc2)C1 [Compound 23.11, 1-(4-(3,3-Dimethylpyrrolidin-1-yl)phenyl)-5,7-difluoro-1H-indazol-6-ol] | > 7.00 | 
CC1(C)CCN(c2ccc(-n3ncc4cc(F)c(O)c(F)c43)nc2)CC1 [Compound 26.3, 1-(5-(4,4-Dimethylpiperidin-1-yl)pyridin-2-yl)-5,7-difluoro-1H-indazol-6-ol] | > 7.00 | 
CS(=O)(=O)N1CCN(c2ccc(-n3nnc4cc(F)c(O)c(F)c43)nn2)CC1 [Compound 26.25, 5,7-Difluoro-1-(6-(4-(methylsulfonyl)piperazin-1-yl)pyridazin-3-yl)-1H-benzo[d][1,2,3]triazol-6-ol] | 4.52 to 6.00 | 
CS(=O)(=O)N1CCN(c2cnc(-n3nnc4cc(F)c(O)c(F)c43)nc2)CC1 [Compound 26.22, 5,7-Difluoro-1-(5-(4-(methylsulfonyl)piperazin-1-yl)pyrimidin-2-yl)-1H-benzo[d][1,2,3]triazol-6-ol] |  | inhibition at 10 µM (at 10 uM compound): 45%
CC1(C)CCN(c2ccc(N3C(=O)C(O)c4cc(F)c(O)c(F)c43)cc2)CC1 (stereo not drawn) [Compound 35, 1-(4-(4,4-Dimethylpiperidin-1-yl)phenyl)-5,7-difluoro-3,6-dihydroxyindolin-2-one hydrochloride] |  | inhibition at 10 µM: < 20%
Oc1cc2c(cnn2-c2ccc(-c3ccc(F)cc3)cc2)cc1F [Compound 13.5, 5-Fluoro-1-(4′-fluoro-[1,1′-biphenyl]-4-yl)-1H-indazol-6-ol] | 6.00 to 7.00 | 
CS(=O)(=O)N1CCN(c2ccc(-n3ncc4ccc(O)cc43)cc2)CC1 [Compound 26.5, 1-(4-(4-(Methylsulfonyl)piperazin-1-yl)phenyl)-1H-indazol-6-ol] |  | inhibition at 10 µM (at 10 uM compound): 35%
CS(=O)(=O)N1CCN(c2ccc(-n3ncc4cc(F)c(O)c(F)c43)nc2)CC1 [Compound 26.4, 5,7-Difluoro-1-(5-(4-(methylsulfonyl)piperazin-1-yl)pyridin-2-yl)-1H-indazol-6-ol] | 4.52 to 6.00 | 
Oc1c(F)cc2cnn(-c3ccc(C4=CCCCC4)cc3)c2c1F [Compound 27.1, 5,7-Difluoro-1-(2′,3′,4′,5′-tetrahydro-[1,1′-biphenyl]-4-yl)-1H-indazol-6-ol] | > 7.00 | 
CC1(O)CCN(c2ccc(-n3ncc4cc(F)c(O)c(F)c43)cc2)CC1 [Compound 23.22, 5,7-Difluoro-1-(4-(4-hydroxy-4-methylpiperidin-1-yl)phenyl)-1H-indazol-6-ol] | 6.00 to 7.00 | 
Oc1cc2c(cnn2-c2ccc(-c3ccccc3)cc2)cc1F [Compound 2.2, 1-([1,1′-Biphenyl]-4-yl)-5-fluoro-1H-indazol-6-ol] | 6.00 to 7.00 | 
Cc1nc2cc(F)c(O)c(F)c2n1-c1ccc(N2CCC(C)(C)CC2)cc1 [Compound 21.8, 1-(4-(4,4-Dimethylpiperidin-1-yl)phenyl)-5,7-difluoro-2-methyl-1H-benzo[d]imidazol-6-ol] |  | inhibition at 10 µM (at 10 uM compound): 35%
CS(=O)(=O)N1CCN(c2ccc(-n3ncc4cc(F)c(O)c(F)c43)cc2F)CC1 [Compound 23.7, 5,7-Difluoro-1-(3-fluoro-4-(4-(methylsulfonyl)piperazin-1-yl)phenyl)-1H-indazol-6-ol] | 6.00 to 7.00 | 
CC1(C)CCN(c2ccc(-n3ncc4cc(F)c(O)c(F)c43)cc2)CC1 [Compound 23, 1-(4-(4,4-Dimethylpiperidin-1-yl)phenyl)-5,7-difluoro-1H-indazol-6-ol] | > 7.00 | 
Oc1cc2c(nnn2-c2ccc(N3CC4(CCOCC4)C3)cc2)c(C(F)(F)F)c1F [Compound 41, 1-(4-(7-Oxa-2-azaspiro[3.5]nonan-2-yl)phenyl)-5-fluoro-4-(trifluoromethyl)-1H-benzo[d][1,2,3]triazol-6-ol] | 6.00 to 7.00 | 
CC1(C)CCN(c2ccc(-n3c(=O)oc4c(Br)c(F)c(O)c(F)c43)cc2)CC1 [Compound 38, 7-Bromo-3-(4-(4,4-dimethylpiperidin-1-yl)phenyl)-4,6-difluoro-5-hydroxybenzo[d]oxazol-2(3H)-one] | > 7.00 | 
OCc1cccc(-c2ccc(-n3ncc4cc(F)c(O)cc43)cc2)c1 [Compound 13.22, 5-Fluoro-1-(3′-(hydroxymethyl)-[1,1′-biphenyl]-4-yl)-1H-indazol-6-ol] | 4.52 to 6.00 | 
CC1(C)CCN(c2ccc(N3C(=O)C(C)(C)c4cc(F)c(O)c(F)c43)cc2)CC1 [Compound 34, 1-(4-(4,4-Dimethylpiperidin-1-yl)phenyl)-5,7-difluoro-6-hydroxy-3,3-dimethylindolin-2-one] | 4.52 to 6.00 | 
